Experimental data: PubChem BioAssay (NCI)
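48-hour exposure; five concentrations; linearly interpolated endpoints. GI50 is the concentration that inhibits growth by half. TGI: total growth inhibition.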

Experiments:
Test in all cases: growth of human tumour cells (NCI), 48 h; in the data active means GI50 below about 0.43 µM; inactive means the rest
SR leukemia = test system: SR leukemia
NCI-H23 lung = test system: NCI-H23 lung
NCI-H226 lung = test system: NCI-H226 lung
MDA-MB-435 = test system: MDA-MB-435
OVCAR-8 ovarian = test system: OVCAR-8 ovarian
TK-10 renal = test system: TK-10 renal
HOP-62 NSCLC = test system: HOP-62 NSCLC
OVCAR-4 ovarian = test system: OVCAR-4 ovarian
SN12C renal = test system: SN12C renal
MCF7 breast = test system: MCF7 breast
NCI/ADR-RES ovarian = test system: NCI/ADR-RES ovarian
HCT-116 colon = test system: HCT-116 colon
UO-31 renal = test system: UO-31 renal
HS 578T breast = test system: HS 578T breast
NCI-H522 lung = test system: NCI-H522 lung
OVCAR-3 ovarian = test system: OVCAR-3 ovarian
SF-268 CNS = test system: SF-268 CNS
A549 NSCLC = test system: A549 NSCLC
HCC-2998 colon = test system: HCC-2998 colon
U251 CNS = test system: U251 CNS
LOX IMVI melanoma = test system: LOX IMVI melanoma
M14 melanoma = test system: M14 melanoma
MOLT-4 leukemia = test system: MOLT-4 leukemia
T-47D breast = test system: T-47D breast
PC-3 prostate = test system: PC-3 prostate
NCI-H460 lung = test system: NCI-H460 lung
IGROV1 ovarian = test system: IGROV1 ovarian

COc1ccc(N2CCN(c3nc(-c4ccccn4)nc4sc5c(c34)CCCCCC5)CC2)cc1
inactive: GI50 (SR leukemia) 3.18 µM | GI50 (NCI-H23 lung) 16.9 µM | GI50 (NCI-H226 lung) 6.49 µM | GI50 (MDA-MB-435) 5.49 µM | GI50 (OVCAR-8 ovarian) 5.23 µM | GI50 (TK-10 renal) > 100 µM | GI50 (HOP-62 NSCLC) 11.4 µM | GI50 (OVCAR-4 ovarian) 8.58 µM | GI50 (SN12C renal) 5.99 µM | GI50 (MCF7 breast) 3.15 µM | GI50 (NCI/ADR-RES ovarian) 4.77 µM | GI50 (HCT-116 colon) 3.22 µM | GI50 (UO-31 renal) 3.28 µM | GI50 (HS 578T breast) 57.6 µM | GI50 (NCI-H522 lung) 18.6 µM | GI50 (OVCAR-3 ovarian) 8.61 µM | GI50 (SF-268 CNS) > 100 µM | GI50 (A549 NSCLC) 3.25 µM | GI50 (HCC-2998 colon) 10.3 µM | GI50 (U251 CNS) 4.26 µM | GI50 (LOX IMVI melanoma) 6.24 µM | GI50 (M14 melanoma) 5.4 µM | GI50 (MOLT-4 leukemia) 3.26 µM | GI50 (T-47D breast) 6.31 µM | GI50 (PC-3 prostate) 3.31 µM | GI50 (NCI-H460 lung) 4.67 µM | GI50 (IGROV1 ovarian) 5.34 µM
> 100 µM: TGI (SR leukemia) | TGI (NCI-H23 lung) | TGI (NCI-H226 lung) | TGI (MDA-MB-435) | TGI (OVCAR-8 ovarian) | TGI (TK-10 renal) | TGI (HOP-62 NSCLC) | TGI (OVCAR-4 ovarian) | TGI (SN12C renal) | TGI (MCF7 breast) | TGI (NCI/ADR-RES ovarian) | TGI (HCT-116 colon) | TGI (UO-31 renal) | TGI (HS 578T breast) | TGI (NCI-H522 lung) | TGI (OVCAR-3 ovarian) | TGI (SF-268 CNS) | TGI (A549 NSCLC) | TGI (HCC-2998 colon) | TGI (U251 CNS) | TGI (LOX IMVI melanoma) | TGI (M14 melanoma) | TGI (MOLT-4 leukemia) | TGI (T-47D breast) | TGI (PC-3 prostate) | TGI (NCI-H460 lung) | TGI (IGROV1 ovarian)
